Laboratory results from the COVID Moonshot data (paper PMC11187573), “Identification of SARS-CoV-2 Mpro inhibitors through deep reinforcement learning for de novo drug design and computational chemistry approaches” (RSC Medicinal Chemistry, 2024).

Tests used:
[1] = target: SARS-CoV-2 Main Protease (SARS-CoV-2) (UniProt P0DTD1)
Protocol: Compounds were seeded into assay-ready plates (Greiner 384 low volume, cat 784900) using an Echo 555 acoustic dispenser, and DMSO was back-filled for a uniform concentration in assay plates (DMSO concentration maximum 1%) Screening assays were performed in duplicate at 20µM and 50µM. […] Dose response assays were performed in 12 point dilutions of 2-fold, typically beginning at 100µM. […] Reagents for Mpro assay were dispensed into the assay plate in 10µl volumes for a final volume of 20µL.
Mpro was pre-incubated for 15 minutes at room temperature with compound before addition of substrate and a further 30 minute incubation. Protease reaction was measured in a BMG Pherastar FS with a 480/520 ex/em filter set. Raw data was mapped and normalized to high (Protease with DMSO) and low (No Protease) controls using Genedata Screener software.

[2] = target: SARS-CoV-2 Main Protease (SARS-CoV-2) (UniProt P0DTD1); remark: listed apart in the source

SMILES | inhibition ([1]; 20.0 µM) | inhibition ([1]; 50.0 µM) | inhibition ([2]; 50.0 µM) | relative solubility at 20 uM | relative solubility at 100 uM | inhibition ([2]; 20.0 µM) | IC50 [1] | IC50 [2]
CCCN(C(=O)Cc1cccc(Cl)c1)c1cccnc1 | 2.28% | 3.25% | 36.2% | 1 | 1 | – | – | –
O=C(Cc1ccc2ccccc2c1)Nc1cc(C(F)(F)F)ccn1 | -2.55% | 3.43% | 29.3% | 0.9 | 0.38 | 11% | – | –
O=C(CCl)N1CCN(S(=O)(=O)c2cccc(F)c2)CC1 | 97.3% | 104% | 96.8% | 1 | 1 | 96.6% | 4550 nM | 2.02 µM
O=C(NCC1COc2ccccc2O1)c1cc(=O)[nH]c2cc(F)ccc12 (centres undefined) | -0.372% | -2.5% | 3.98% | 0.98 | 0.62 | – | – | –
CC(NC(=O)C(Cc1ccccc1)NC(=O)c1ccco1)c1ncco1 (centres undefined) | – | -28% | 0% | 1 | 1 | 0% | – | –
NC(=O)CCN(C(=O)CCl)C1CCS(=O)(=O)C1 (centres undefined) | – | 18.6% | 34.1% | 1 | 1 | 16.3% | – | –
O=C(NCc1cnccn1)c1sc2cccc(F)c2c1COc1ccccc1 | -1.73% | 6.32% | -0.855% | 0.95 | 0.44 | 0% | – | –
C=CC(=O)N1CCCC(c2nc3ccccc3s2)C1 (centres undefined) | – | 14.5% | 0% | 0.99 | 0.99 | 0% | – | –
CSc1ccncc1NC(=O)Cc1ccc2c(c1)CCCC2 | -1.16% | 11.6% | 0% | 0.99 | 0.67 | – | – | –
O=C(Nc1ccccc1Cl)c1cc(Cl)ccc1O | 5.47% | 5.58% | – | 0.91 | 0.7 | 7.14% | – | –
O=C(Cc1ccccc1OC1CCOC1)OCc1cnn[nH]1 (centres undefined) | – | 20.7% | 0% | 1 | 1 | 0% | – | –
O=C(Nc1nncn1C1CC1)C1CCOc2ccc(Cl)cc21 (centres undefined) | 46.7% | 54.6% | 1.9% | 1 | 1 | – | 598 nM | –
Cc1ccncc1NC(=O)C12CCC(CO1)C2 (centres undefined) | -5.84% | 9.66% | 0% | 1.01 | 1 | – | – | –
Cc1cccc(CC(=O)Nc2cccnc2C#N)c1 | 8.4% | -5.94% | – | 1 | 1 | 0% | – | –
Cc1ccncc1NC(=O)CN1C(=O)COc2ccc(Cl)cc21 | 32.8% | 49.3% | 67.2% | 0.99 | 0.99 | – | – | 38.9 µM
NS(=O)(=O)c1ccc(N2CCC(CN3CCCCCC3)CC2)cc1 | -5.53% | -0.987% | 5.22% | 0.99 | 0.91 | -2.46% | – | –
O=C(Cc1cccc(Cl)c1)Nc1cnccn1 | 3.71% | 13.3% | 0% | 1.01 | 1 | – | – | –
O=C(Nc1nncn1C1CC1)[C@H]1CCOc2ccc(Cl)cc21 (stereo in doubt) | -13.3% | -7.61% | -19.4% | 1.01 | 1 | – | – | –
O=S(=O)(Cc1ccccc1)Nc1cnccc1N1CCCC1 | 1.48% | 1.38% | 0% | 0.99 | 0.98 | – | – | –

SMILES | inhibition ([1]; 20.0 µM) | inhibition ([1]; 50.0 µM) | inhibition ([2]; 50.0 µM) | relative solubility at 20 uM | relative solubility at 100 uM | inhibition ([2]; 20.0 µM) | IC50 [1] | IC50 [2]
C=CC(=O)N(c1ccc(N(C)C)c(C)c1)C(C(=O)Nc1c(C)cccc1CC)c1cccnc1 (centres undefined) | 6.4% | 13.2% | – | 0.9 | 0.77 | 0% | – | –
CCOC(=O)[C@H]1O[C@@H]1C(=O)N[C@@H](CC(C)C)C(=O)NCCC(C)C (stereo in doubt) | -1.54% | -5.21% | 0% | 1 | 1 | – | – | –
N#Cc1ccccc1S(=O)(=O)N1CCN(C(=O)c2cc(=O)[nH]c3ccc(F)cc23)CC1 | 14.7% | 29.9% | 29.9% | 0.99 | 0.92 | – | – | –
Cc1cccc(C2CN(C(=O)CCl)Cc3ccccc32)c1 (centres undefined) | 98.1% | 99.7% | 53.8% | 1 | 0.93 | – | – | 0.42 µM
O=C(Nc1cnccc1CO)[C@@H]1COc2ccc(Cl)cc21 (stereo in doubt) | 46.1% | 73.1% | 58.6% | 1.01 | 1 | – | – | 18.4 µM
NS(=O)(=O)c1ccc(N2CCC(c3ccncc3)CC2)cc1 | 0.875% | 1.65% | 1.84% | 1 | 0.94 | 1.05% | – | –
Cc1cnn(-c2ccncc2NC(=O)Cn2cc(C)c3ccccc32)c1 | -8.61% | -0.417% | 0% | 0.59 | 0.1 | – | – | –
C=CC(=O)N(c1ccc(C(C)(C)C)cc1)C(C(=O)NC1CC(C(=O)OC)C1)c1cccnc1 (centres undefined) | 5.7% | 4.24% | 0% | 0.99 | 0.98 | 0% | – | –
CCOCC1CCN(c2ccc(S(N)(=O)=O)cc2)CC1 | – | 7.41% | 44.6% | 1 | 1 | 21.8% | – | –
Cc1cc(C)c(C)c(S(=O)(=O)N2CCN(C(=O)c3cc(=O)[nH]c4ccccc34)CC2)c1C | 84.4% | 92.9% | 88.1% | 0.75 | 0.65 | 81.7% | – | 3.75 µM
COC(=O)c1sc(NS(=O)(=O)c2ccc(CF)cc2)nc1C(C)(C)C | – | -7.77% | 0% | 1 | 0.99 | 0% | – | –
CN(C)C/C=C/C(=O)NCc1c[nH]c2ccccc12 | 3.86% | 0.744% | – | 0.96 | 0.98 | 0% | – | –
Cc1ccncc1NC(=O)c1cccc(NC(=O)Nc2cccnc2)c1 | – | -23.3% | 1.27% | 1 | 1 | 2.38% | – | –
Sc1nc2ccccc2c2nc(CCc3ccccc3)nn12 | -0.837% | -6.97% | 0% | 0.93 | 0.89 | – | – | –
CNC(=O)OC1CCN(Cc2ccccc2)CC1 | – | 17.6% | 0% | 0.99 | 1 | 0.824% | – | –
Cc1ccncc1NC(=O)CC(C)C(C)C (centres undefined) | -5.58% | 29.2% | 6.99% | 1 | 1 | – | – | –
CN(C(=O)Cn1nnc2ccccc21)c1ccc(Oc2ccc(C(F)(F)F)cn2)cc1 | 30.2% | 59.4% | 19.2% | 0.98 | 0.87 | – | – | –
C#CCN1CCN(C(=O)CCl)CC1 | – | 27.2% | 7.12% | 1 | 1 | 6.86% | – | –
